Legend:
[1] = test system: EpiVaginal (VEC-100) 3-D tissues; assay: Barrier integrity by transepithelial electrical resistance (TEER) in EpiVaginal tissues; type: cell-based; details: 24 hr exposure; for TEER avg. (% of VC): tissues in triplicate, normalized to average TEER of vehicle control VC
Experimental: (§1) EpiVaginal (VEC-100) 3-D tissues, produced by MatTek Corporation, were used to evaluate eight test conditions plus a positive control known to have negative effects on tissue viability and barrier function (nonoxynol-9); the conditions tested are given in Table 3 below. Barrier integrity was measured at baseline, and tissues were treated in triplicate with test articles for 24 hours. Three tissues were left untreated to serve as negative control (NC); three tissues were treated with 4% nonoxynol-9 to serve as positive control (PC); and three tissues were dosed with media to serve as vehicle control (VC). At the end of 24 hr exposure to the test articles, barrier integrity was measured using transepithelial electrical resistance (TEER) and two tissues were used to assess tissue viability with the MTT assay. From each treatment group, one tissue was fixed in 10% formalin and processed for H&E staining for histological analysis.
Throughout this Example and Example 8 below, “VS-01” refers to a consortium of three Lactobacillus crispatus strains: LUCA011 (ATCC Accession Deposit No. PTA-127214) at a concentration of 3.70·10^10 CFU/g, LUCA009 (ATCC Accession Deposit No. PTA-127213) at a concentration of 8.60·10^9 CFU/g, and LUCA103 (ATCC Accession Deposit No. PTA-127218) at a concentration of 2.50·10^10 CFU/g. A stock of 10^6 CFU/mL of the combined strains was used for testing. A comparator strain, L. crispatus ATCC 33197, was sourced from the American Type Culture Collection, and it was determined by bioinformatic analysis that the genome of this strain had between 99.0% and 99.2% average nucleotide identity (ANI) with each of the three VS-01 strains.
The concentration of VS-01 most relevant to in vivo exposure in the VEC-100 model (10^6 CFU/mL) was determined using two different approaches: (1) Comparison of the exposure per unit area of vaginal surface area between VS-01 in vivo and VS-01 in the VEC-100 model. As known from the literature, the average surface area of the human vagina ranges from 65.73 to 107.07 cm^2 with a mean of 87.46 cm^2 and a standard deviation of 7.80 cm^2. If an 850 mg tablet as described in Example 3 instantaneously dissolved, the estimated coverage would be 9.7 mg/cm^2 (850 mg/87.46 cm^2). This most closely corresponds to a 1:100 dilution of the tablet and can be considered an upper bound, given that the tablet dissolves slowly over a 24-hour period. (2)
Comparison of the ratio of L. crispatus cells to vaginal epithelial cells in vivo and in the VEC-100 model. […] The Mattek model contains between about 350,000 and about 500,000 cells at a depth of three to five layers. If 100,000 epithelial cells are exposed at the surface, exposure to 10^6 bacterial cells produces a reasonable estimate of a 10:1 bacterial cell/epithelial cell ratio.
An estimate of the concentration of D-lactate most relevant to in vivo exposure was obtained considering tablet dissolution kinetics. Tablets as described in Example 3 are slow-release formulations, dissolving over the course of […]. The volume of cervicovaginal fluid (CVF) present in the vagina is variable, ranging from about 1 mL to about 4 mL, with a discharge rate of about 2 mL to about 5 mL over 24 hours; thus, the dissolution rate of a tablet as described in Example 3 would be about 71 mg/hour. D-lactate concentrations of tablets as described in Example 3 range from about 34 mg/tablet to about 44 mg/tablet. Estimating that 8.4% of an 850 mg tablet dissolves per hour (71 mg/hour divided by 850 mg/tablet) gives an estimated in vivo D-lactate concentration range of 31.7 mM to 40.44 mM D-lactate. Therefore, testing 10 mM and 100 mM D-lactate in this Example covers the physiological range of estimated exposure given the expected variability in the exact concentration of D-lactate per tablet. […]

[2] = test system: EpiVaginal (VEC-100) 3-D tissues; assay: Tissue viability by MTT assay in EpiVaginal tissues; type: cell-based; details: 24 hr exposure
Experimental: as §1

Compound	TEER avg. (% of VC) [1]	Barrier integrity / TEER, result in words [1]	TEER vs NC ([1]; relative to untreated negative control NC)	TEER vs VC ([1]; relative to vehicle control VC)	Cytotoxicity / tissue viability (MTT), result in words [2]
C[C@@H](O)C(=O)O [TA6, D-lactate]	128.4 % of VC				
C[C@@H](O)C(=O)O [D-lactate]		did not result in significant improvements in TEER over VC			
nonoxynol-9 [PC]	0.6 % of VC	barrier disruption	0.2%	0.6%	severe cytotoxicity
C[C@@H](O)C(=O)O [TA7, D-lactate]	114.8 % of VC				
